From patent US10227361B2, “Fused imidazobenzothiazole compounds” (TORRENT PHARMACEUTICALS LIMITED, priority 2014, dated 2019)

molecular target: T1, purified recombinant human p38 alpha MAPK (Homo sapiens, UniProt Q16539); assay: Inhibition of p38 alpha MAPK activity: TR-FRET kinase assay; type: biochemical; settings: Concentration 100 nM; read-out: P38α Inhibition
T1 construct: purchased Millipore, USA
Procedure: Inhibition of p38 Alpha MAPK Activity: Time-Resolved Fluorescence Resonance Energy Transfer Kinase Standard Assay (TR-FRET Assay)
Compounds of present invention at various concentrations were premixed with DMSO. The experiment was initiated by mixing 0.5% 1.0% DMSO as vehicle/compounds with purified recombinant human p38 alpha MAPK (Millipore, USA) in the wells and 15 min incubation at RT. Thereafter, 30 nM of Biotinylated GST-ATF2 (Activation Transcription Factor2) and 100 μM of ATP were added in to the wells containing reaction mixture, followed by reincubation for 60 minutes at RT. Reaction was terminated by addition of 10 mM of EDTA and detection reagent containing anti-phosphothreonine ATF2 antibody (Perkin Elmer, USA) labelled with europium chelate and APC (Allophycocyanin) labeled streptavidin, into the reaction mixture which was further incubated for 60 minutes at room temperature. The degree of phosphorylation of the substrate (GST-ATF2) was measured using Envision multimode reader (Perkin Elmer). Percentage inhibition of p38 kinase activity was calculated by determining ratio of specific europium 665 nm energy transfer signal to reference 615 nm signal.

T1 sequence (Q16539 whole entry): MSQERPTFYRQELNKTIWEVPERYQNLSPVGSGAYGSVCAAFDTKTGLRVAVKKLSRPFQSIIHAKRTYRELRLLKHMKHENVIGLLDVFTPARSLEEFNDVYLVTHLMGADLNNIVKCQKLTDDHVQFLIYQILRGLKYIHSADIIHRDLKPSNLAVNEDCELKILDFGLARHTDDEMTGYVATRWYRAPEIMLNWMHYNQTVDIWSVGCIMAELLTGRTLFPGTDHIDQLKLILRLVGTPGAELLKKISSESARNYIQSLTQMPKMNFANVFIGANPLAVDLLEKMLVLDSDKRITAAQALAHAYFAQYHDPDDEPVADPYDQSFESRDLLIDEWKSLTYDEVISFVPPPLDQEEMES

inhibition at 0.1 µM	Compound
60 to 80%	CCOC(=O)c1cnc2sc3cc(Oc4ccccc4CNC(=O)Nc4cc(C(C)(C)C)nn4-c4ccc(O)c(Cl)c4)ccc3n12 [Compound 25, ethyl 7-{2-[({[3-tert-butyl-1-(3-chloro-4-hydroxyphenyl)-1H-pyrazol-5-yl]carbamoyl}amino)methyl]phenoxy}imidazo[2,1-b][1,3]benzothiazole-3-carboxylate]

same assay, conditions: Concentration 1 μM

P38α Inhibition	Compound
++ (++ = Inhibition ≥20% ≤ 40%)	7-{[4-({[3-tert-butyl-1-(4-hydroxyphenyl)-1H-pyrazol-5-yl]carbamoyl}amino)phenyl]sulfanyl}-N-(2-hydroxyethyl)imidazo[2,1-b][1,3]benzothiazole-3-carboxamide [Compound 11]

same assay, conditions: Concentration 1 μM; read-out: P38α Inhibition

Compound	inhibition at 1 µM
COc1ccc(-n2nc(C(C)(C)C)cc2NC(=O)Nc2ccc(Oc3ccc4c(c3)sc3ncc(C(=O)O)n34)cc2)cc1Cl [Compound 6, 7-[4-({[3-tert-butyl-1-(3-chloro-4-methoxyphenyl)-1H-pyrazol-5-yl]carbamoyl}amino)phenoxy]imidazo[2,1-b][1,3]benzothiazole-3-carboxylic acid]	80 to 100%
COCc1c(C)nc2sc3cc(Oc4ccccc4CNC(=O)Nc4cc(C(C)(C)C)nn4-c4ccc(O)c(Cl)c4)ccc3n12 [Compound 37, 1-[3-tert-butyl-1-(3-chloro-4-hydroxyphenyl)-1H-pyrazol-5-yl]-3-(2-{[3-(methoxymethyl)-2-methylimidazo[2,1-b][1,3]benzothiazol-7-yl]oxy}benzyl)urea]	80 to 100%
CC(C)(C)c1cc(NC(=O)NCc2ccccc2Sc2ccc3c(c2)sc2ncc(C(=O)O)n23)n(-c2ccc(O)c(Cl)c2)n1 [Compound 24, 7-({2-[({[3-tert-butyl-1-(3-chloro-4-hydroxyphenyl)-1H-pyrazol-5-yl]carbamoyl}amino)methyl]phenyl}sulfanyl)imidazo[2,1-b][1,3]benzothiazole-3-carboxylic acid]	40 to 60%
CC(C)(C)c1cc(NC(=O)NCc2ccccc2Oc2ccc3c(c2)sc2ncc(CN4CCSCC4)n23)n(-c2ccc(O)c(Cl)c2)n1 [Compound 29, 1-[3-tert-butyl-1-(3-chloro-4-hydroxyphenyl)-1H-pyrazol-5-yl]-3-(2-{[3-(thiomorpholin-4-ylmethyl)imidazo[2,1-b][1,3]benzothiazol-7-yl]oxy}benzyl)urea]	80 to 100%
CC(C)(C)c1cc(NC(=O)NCc2ccccc2Oc2ccc3c(c2)sc2ncc(C(=O)NCCO)n23)n(-c2ccc(O)cc2)n1 [Compound 14, 7-{2-[({[3-tert-butyl-1-(4-hydroxyphenyl)-1H-pyrazol-5-yl]carbamoyl}amino)methyl]phenoxy}-N-(2-hydroxyethyl)imidazo[2,1-b][1,3]benzothiazole-3-carboxamide]	80 to 100%
COc1ccc(-n2nc(C(C)(C)C)cc2NC(=O)Nc2ccc(Oc3ccc4c(c3)sc3ncc(CO)n34)cc2)cc1 [Compound 15, 1-[3-tert-butyl-1-(4-methoxyphenyl)-1H-pyrazol-5-yl]-3-(4-{[3-(hydroxymethyl)imidazo[2,1-b][1,3]benzothiazol-7-yl]oxy}phenyl)urea]	60 to 80%
CC(C)(C)c1cc(NC(=O)NCc2ccccc2Oc2ccc3c(c2)sc2ncc(CN4CCOCC4)n23)n(-c2ccc(O)c(Cl)c2)n1 [Compound 35, 1-[3-tert-butyl-1-(3-chloro-4-hydroxyphenyl)-1H-pyrazol-5-yl]-3-(2-{[3-(morpholin-4-ylmethyl)imidazo[2,1-b][1,3]benzothiazol-7-yl]oxy}benzyl)urea]	80 to 100%
CC(C)(C)c1cc(NC(=O)Nc2ccc(Sc3ccc4c(c3)sc3ncc(C(=O)O)n34)cc2)n(-c2ccc(O)cc2)n1 [Compound 9, 7-{[4-({[3-tert-butyl-1-(4-hydroxyphenyl)-1H-pyrazol-5-yl]carbamoyl}amino)phenyl]sulfanyl}imidazo[2,1-b][1,3]benzothiazole-3-carboxylic acid]	80 to 100%
CN(CCO)C(=O)c1cnc2sc3cc(Oc4ccccc4CNC(=O)Nc4cc(C(C)(C)C)nn4-c4ccc(O)c(Cl)c4)ccc3n12 [Compound 28, 7-{2-[({[3-tert-butyl-1-(3-chloro-4-hydroxyphenyl)-1H-pyrazol-5-yl]carbamoyl}amino)methyl]phenoxy}-N-(2-hydroxyethyl)-N-methylimidazo[2,1-b][1,3]benzothiazole-3-carboxamide]	80 to 100%
CC(C)(C)c1cc(NC(=O)Nc2ccc(Sc3ccc4c(c3)sc3ncc(CO)n34)cc2)n(-c2ccc(O)cc2)n1 [Compound 18, 1-[3-tert-butyl-1-(4-hydroxyphenyl)-1H-pyrazol-5-yl]-3-(4-{[3-(hydroxymethyl)imidazo[2,1-b][1,3]benzothiazol-7-yl]sulfanyl}phenyl)urea]	40 to 60%
CC(C)(C)c1cc(NC(=O)NCc2ccccc2Oc2ccc3c(c2)sc2ncc(CO)n23)n(-c2ccc(O)cc2)n1 [Compound 16, 1-[3-tert-butyl-1-(4-hydroxyphenyl)-1H-pyrazol-5-yl]-3-(2-{[3-(hydroxymethyl)imidazo[2,1-b][1,3]benzothiazol-7-yl]oxy}benzyl)urea]	80 to 100%
CC(C)(C)c1cc(NC(=O)NCc2ccccc2Oc2ccc3c(c2)sc2ncc(C(=O)O)n23)n(-c2ccc(O)c(Cl)c2)n1 [Compound 19, 7-{2-[({[3-tert-butyl-1-(3-chloro-4-hydroxyphenyl)-1H-pyrazol-5-yl]carbamoyl}amino)methyl]phenoxy}imidazo[2,1-b][1,3]benzothiazole-3-carboxylic acid]	80 to 100%
CC(C)(C)c1cc(NC(=O)NCc2ccccc2Oc2ccc3c(c2)sc2ncc(CSCCO)n23)n(-c2ccc(O)c(Cl)c2)n1 [Compound 23, 1-[3-tert-butyl-1-(3-chloro-4-hydroxyphenyl)-1H-pyrazol-5-yl]-3-{2-[(3-{[(2-hydroxyethyl)sulfanyl]methyl}imidazo[2,1-b][1,3]benzothiazol-7-yl)oxy]benzyl}urea]	80 to 100%

Continued, values first:

inhibition at 1 µM	Compound
80 to 100%	COCc1c(C)nc2sc3cc(Oc4ccccc4CNC(=O)Nc4cc(C(C)(C)C)no4)ccc3n12 [Compound 50, 1-(3-tert-butyl-1,2-oxazol-5-yl)-3-(2-{[3-(methoxymethyl)-2-methylimidazo[2,1-b][1,3]benzothiazol-7-yl]oxy}benzyl)urea]
60 to 80%	CCOC(=O)c1cnc2sc3cc(Oc4ccccc4CNC(=O)Nc4cc(C(C)(C)C)nn4-c4ccccc4)ccc3n12 [Compound 67, ethyl 7-[2-({[(3-tert-butyl-1-phenyl-1H-pyrazol-5-yl)carbamoyl]amino}methyl)phenoxy]imidazo[2,1-b][1,3]benzothiazole-3-carboxylate]
60 to 80%	CC(C)(C)c1cc(NC(=O)NCc2ccccc2Oc2ccc3c(c2)sc2ncc(COCC4CC4)n23)n(-c2ccc(O)c(Cl)c2)n1 [Compound 56, 1-[3-tert-butyl-1-(3-chloro-4-hydroxyphenyl)-1H-pyrazol-5-yl]-3-[2-({3-[(cyclopropylmethoxy)methyl]imidazo[2,1-b][1,3]benzothiazol-7-yl}oxy)benzyl]urea]
≤ 20%	CCOC(=O)c1cnc2sc3cc(Oc4ccc(NC(=O)Nc5c(-c6ccccc6)noc5C)cc4)ccc3n12 [Compound 43, ethyl 7-(4-{[(5-methyl-3-phenyl-1,2-oxazol-4-yl)carbamoyl]amino}phenoxy)imidazo[2,1-b][1,3]benzothiazole-3-carboxylate]
60 to 80%	COc1c(NC(=O)NCc2ccccc2Oc2ccc3c(c2)sc2ncc(CN4CCOCC4)n23)cc(C(C)(C)C)cc1NS(C)(=O)=O [Compound 74, N-(5-tert-butyl-2-methoxy-3-{[(2-{[3-(morpholin-4-ylmethyl)imidazo[2,1-b][1,3]benzothiazol-7-yl]oxy}benzyl)carbamoyl]amino}phenyl) methanesulfonamide]
40 to 60%	CCOC(=O)c1cnc2sc3cc(Oc4ccccc4CNC(=O)Nc4ccc(OC)c(Cl)c4)ccc3n12 [Compound 44, ethyl 7-[2-({[(3-chloro-4-methoxyphenyl)carbamoyl]amino}methyl)phenoxy]imidazo[2,1-b][1,3]benzothiazole-3-carboxylate]
≤ 20%	CCOC(=O)c1cnc2sc3cc(Oc4ccc(NC(=O)Nc5ccc(Cl)c(C(F)(F)F)c5)cc4)ccc3n12 [Compound 47, ethyl 7-[4-({[4-chloro-3-(trifluoromethyl)phenyl]carbamoyl}amino)phenoxy]imidazo[2,1-b][1,3]benzothiazole-3-carboxylate]
80 to 100%	Cc1nc2sc3cc(Oc4ccccc4CNC(=O)Nc4cc(C(C)(C)C)nn4-c4ccc(O)c(Cl)c4)ccc3n2c1CN1CCOCC1 [Compound 40, 1-[3-tert-butyl-1-(3-chloro-4-hydroxyphenyl)-1H-pyrazol-5-yl]-3-(2-{[2-methyl-3-(morpholin-4-ylmethyl)imidazo[2,1-b][1,3]benzothiazol-7-yl]oxy}benzyl)urea]
